# Values quoted from earlier work in article PMC3889329 (Diabetes Therapy, 2013).
# Test system: healthy subjects
# Conditions: cited from earlier work
smiles,measurement,setting,value
Cc1ccc([C@@H]2O[C@H](CO)[C@@H](O)[C@H](O)[C@H]2O)cc1Cc1ccc(-c2ccc(F)cc2)s1 [Canagliflozin],Maximal UGE,"200–800 mg qd, healthy subjects",70 g/day
OC[C@H]1O[C@@H](c2ccc(F)c(Cc3cc4ccccc4s3)c2)[C@H](O)[C@@H](O)[C@@H]1O [Ipragliflozin],Maximum UGE,"multiple doses of 5–600 mg, healthy volunteers",approximately 59 g/day
